Measurements: patent US20100119483A1, “PEPTIDE VIRAL ENTRY INHIBITORS” (Schering Corporation, priority 2004, published 2010)
“And” between values parts separate entries of the source, which are not always exact repeats. Equal values may be shown once.

Tested on: HCV pseudoparticles
Experiment: HCV pseudoparticle (HCVpp) entry assay in Huh7 hepatoma cells, luciferase readout
Type: cell-based, hepatitis C virus
Conditions: for % of control at ~30 uM: percentage of hepatitis C virus cellular entry at 30 μM peptide vs uninhibited control
Description: HCV pseudotype particle generation. Single cycle HCV pseudoparticles are composed of a replication-defective HIV genome and HCV envelope proteins. These pseudoparticles were made by transfecting 293T cells with 5 ug of each pNL43E-R-luc (Chen et al., J. Virol. 68(2):654-60 (1994)) and plasmid expressing HCV envelope proteins pCMV/E1-2 with profection transfection kit from Promega (Madison, Wis.). The medium was refreshed 12-24 hours after transfection and supernatant was collected 48 hours after transfection. The supernatant from a transfection of only pNL43E-R-luc was used each time as a control for non specific entry events.
Infection of hepatoma cell lines with HCV pseudotype particles and screen for inhibitory peptides. The hepatoma cells, Huh7, was seeded at 8000 cells in 90 ul medium in 96-well plate. In the case of the inhibitor screen, the inhibitor was incubated with cells for one hour at 37° C. and then 50 ul viral supernatant was added to the cells 24 hours after seeding. The viral stock was pre-tittered and diluted to yield approximately 10,000 to 20,000 RLU. The cells were incubated at 37° C. with 5% CO2 for additional 72 hours and were harvested for luciferase assay. Peptide stocks were prepared in 100% DMSO at 10 mg/ml and were first screened at 100 ug/ml and then a dose responsive curve was generated with 10 points 3-fold titration starting from 100 ug/ml.
The peptide of SEQ ID NO: 77 was first serial diluted by the factor of 3 in 100% DMSO from 100 ug/ml and then transferred to the assay plates at 100-fold dilution. The peptide was first incubated with cells and HCVpp (A) or HIVpp (B), respectively, for 30 minutes at […] in this experiment. Then, the medium containing the peptide was removed from the cells and virus with peptide was added to the cells. Cells were incubated for 72 hours and then were harvested for luciferase assay. Two separate trials were performed.
In addition, the peptide of SEQ ID NO: 77 was mutated at several positions and assayed in the HCV entry assay discussed above. […] The assays were performed essentially as described above.

[1] = 0.1 nM of peptide (printed for three rows), two values per peptide and row
[2] = 0.3 nM of peptide, two values per peptide
[3] = 1 nM of peptide, two values per peptide
[4] = 3 nM of peptide, two values per peptide
[5] = 10 nM of peptide, two values per peptide
[6] = 30 nM of peptide, two values per peptide
[7] = 100 nM of peptide, two values per peptide
[8] = 300 nM of peptide, two values per peptide
[9] = 10000 nM of peptide, two values per peptide
[10] = 30000 nM of peptide, two values per peptide

Substance	% control (HCVpp entry), lysine scanning [1]	% control (HCVpp entry), lysine scanning [2]	% control (HCVpp entry), lysine scanning [3]	% control (HCVpp entry), lysine scanning [4]	% control (HCVpp entry), lysine scanning [5]	% control (HCVpp entry), lysine scanning [6]	% control (HCVpp entry), lysine scanning [7]	% control (HCVpp entry), lysine scanning [8]	% control (HCVpp entry), lysine scanning [9]	% control (HCVpp entry), lysine scanning [10]	% control (HCVpp entry), alanine scanning [1]	% control (HCVpp entry), alanine scanning [2]	% control (HCVpp entry), alanine scanning [3]	% control (HCVpp entry), alanine scanning [4]	% control (HCVpp entry), alanine scanning [5]	% control (HCVpp entry), alanine scanning [6]	% control (HCVpp entry), alanine scanning [7]	% control (HCVpp entry), alanine scanning [8]	% control (HCVpp entry), alanine scanning [9]	% of control at ~30 uM [%]	also measured
A-I-K-W-E-Y-K-L-L-L-F-L-L (AIKWEYKLLLFLL; HCV peptide) [SEQ ID NO: 131]	97 % control and 80 % control and 94 % control and 96 % control and 113 % control	105 % control and 81 % control	85 % control and 68 % control	71 % control and 85 % control	74 % control and 66 % control	71 % control and 68 % control	49 % control and 62 % control	29 % control and 42 % control	16 % control and 14 % control	30 % control and 44 % control	–	–	–	–	–	–	–	–	–	–	–
A-I-K-W-E-Y-P-L-L-L-F-L-L (AIKWEYPLLLFLL; HCV peptide) [SEQ ID NO: 121]	–	–	–	–	–	–	–	–	–	–	–	–	–	–	–	–	–	–	–	–	% control (HCVpp entry), proline scanning [1]: 77 % control and 95 % control and 91 % control and 115 % control and 104 % control and 90 % control; % control (HCVpp entry), proline scanning [2]: 68 % control and 84 % control; % control (HCVpp entry), proline scanning [3]: 76 % control and 110 % control; % control (HCVpp entry), proline scanning [4]: 85 % control and 87 % control; % control (HCVpp entry), proline scanning [5]: 75 % control and 66 % control; % control (HCVpp entry), proline scanning [6]: 70 % control and 82 % control; % control (HCVpp entry), proline scanning [7]: 44 % control and 63 % control; % control (HCVpp entry), proline scanning [8]: 42 % control and 30 % control; % control (HCVpp entry), proline scanning [10]: 32 % control and 41 % control
A-I-K-W-E-Y-V-A-L-L-F-L-L (AIKWEYVALLFLL; HCV peptide) [SEQ ID NO: 93, Ala-scan]	–	–	–	–	–	–	–	–	–	–	91 % control and 83 % control and 80 % control and 104 % control and 134 % control and 81 % control	86 % control and 105 % control	85 % control and 87 % control	78 % control and 87 % control	71 % control and 67 % control	58 % control and 51 % control	47 % control and 42 % control	32 % control and 27 % control	41 % control and 32 % control	13	% control (HCVpp entry), alanine scanning [10]: 32 % control
A-I-K-W-E-Y-V-K-L-L-F-L-L (AIKWEYVKLLFLL; HCV peptide) [SEQ ID NO: 132]	73 % control and 89 % control and 95 % control and 92 % control and 117 % control and 96 % control	100 % control and 71 % control	67 % control and 79 % control	78 % control and 75 % control	54 % control and 56 % control	71 % control and 89 % control	59 % control and 62 % control	46 % control and 44 % control	49 % control and 50 % control	42 % control and 41 % control	–	–	–	–	–	–	–	–	–	–	–
A-I-K-W-E-Y-V-L-A-L-F-L-L (AIKWEYVLALFLL; HCV peptide) [SEQ ID NO: 94, Ala-scan]	–	–	–	–	–	–	–	–	–	–	99 % control and 96 % control and 79 % control and 101 % control and 115 % control and 105 % control	104 % control and 92 % control	81 % control and 82 % control	58 % control and 89 % control	79 % control and 86 % control	58 % control and 48 % control	45 % control and 41 % control	42 % control and 33 % control	36 % control and 34 % control	17	% control (HCVpp entry), alanine scanning [10]: 14 % control and 28 % control
A-I-K-W-E-Y-V-L-K-L-F-L-L (AIKWEYVLKLFLL; HCV peptide) [SEQ ID NO: 133]	78 % control and 85 % control and 96 % control and 101 % control and 87 % control and 116 % control	108 % control and 78 % control	96 % control and 82 % control	95 % control and 79 % control	77 % control and 113 % control	80 % control and 68 % control	75 % control and 60 % control	41 % control and 56 % control	24 % control and 39 % control	–	–	–	–	–	–	–	–	–	–	–	–
A-I-K-W-E-Y-V-L-L-K-F-L-L (AIKWEYVLLKFLL; HCV peptide) [SEQ ID NO: 134]	80 % control and 96 % control and 108 % control and 75 % control and 138 % control and 79 % control	104 % control and 85 % control	128 % control and 81 % control	94 % control and 92 % control	105 % control and 77 % control	101 % control and 76 % control	89 % control and 87 % control	75 % control and 68 % control	60 % control and 47 % control	56 % control and 45 % control	–	–	–	–	–	–	–	–	–	–	–
A-I-K-W-E-Y-V-L-L-L-A-L-L (AIKWEYVLLLALL; HCV peptide) [SEQ ID NO: 95, Ala-scan]	–	–	–	–	–	–	–	–	–	–	82 % control and 89 % control and 76 % control and 114 % control and 97 % control and 113 % control	70 % control and 62 % control	72 % control and 91 % control	52 % control and 85 % control	47 % control and 64 % control	–	53 % control and 35 % control	13 % control and 18 % control	15 % control and 25 % control	8	–
A-I-K-W-E-Y-V-L-L-L-F-A-L (AIKWEYVLLLFAL; HCV peptide) [SEQ ID NO: 96, Ala-scan]	–	–	–	–	–	–	–	–	–	–	95 % control and 86 % control and 100 % control and 96 % control and 72 % control and 132 % control	91 % control and 98 % control	124 % control and 78 % control	76 % control and 85 % control	58 % control and 73 % control	63 % control and 67 % control	24 % control and 41 % control	36 % control and 26 % control	33 % control and 20 % control	24	% control (HCVpp entry), alanine scanning [10]: 31 % control
